Test system: 616215-338-R-J1-PDC spheroids with HUVEC/MSC, viability
Assay: Anticancer human tumor 616215-338-R-J1-PDC patient-derived colon adenocarcinoma cell line growth inhibition [PI3K]
Settings: for IC50: curve of first compound; for viability, T/C: stronger effect = lower value
Method in brief: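 Viability of mixed-cell spheroids was determined after exposure to pairwise combinations, one partner being inavolisib, alpelisib, duvelisib or copanlisib. Highest tested concentration matched clinical Cmax where known and 10 microM where not, descending in half-log steps.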

[1] = second compound 0.0316 µM, first compound 0.00316 µM
[2] = second compound 0.0316 µM, first compound 0.01 µM
[3] = second compound 0.0316 µM, first compound 0.0316 µM
[4] = second compound 0.0316 µM, first compound 0.1 µM
[5] = second compound 0.0316 µM, first compound 0.316 µM
[6] = second compound 0.0316 µM, first compound 1 µM
[7] = second compound 0.1 µM, first compound 0.00316 µM
[8] = second compound 0.1 µM, first compound 0.01 µM
[9] = second compound 0.1 µM, first compound 0.0316 µM
[10] = second compound 0.1 µM, first compound 0.1 µM
[11] = second compound 0.1 µM, first compound 0.316 µM
[12] = second compound 0.1 µM, first compound 1 µM
[13] = second compound 0.316 µM, first compound 0.00316 µM
[14] = second compound 0.316 µM, first compound 0.01 µM
[15] = second compound 0.316 µM, first compound 0.0316 µM
[16] = second compound 0.316 µM, first compound 0.1 µM
[17] = second compound 0.316 µM, first compound 0.316 µM
[18] = second compound 0.316 µM, first compound 1 µM
[19] = second compound 1 µM, first compound 0.00316 µM
[20] = second compound 1 µM, first compound 0.01 µM
[21] = second compound 1 µM, first compound 0.0316 µM
[22] = second compound 1 µM, first compound 0.1 µM
[23] = second compound 1 µM, first compound 0.316 µM
[24] = second compound 1 µM, first compound 1 µM
[25] = second compound 3.16 µM, first compound 0.00316 µM
[26] = second compound 3.16 µM, first compound 0.01 µM
[27] = second compound 3.16 µM, first compound 0.0316 µM
[28] = second compound 3.16 µM, first compound 0.1 µM
[29] = second compound 3.16 µM, first compound 0.316 µM
[30] = second compound 3.16 µM, first compound 1 µM
[31] = second compound 10 µM, first compound 0.00316 µM
[32] = second compound 10 µM, first compound 0.01 µM
[33] = second compound 10 µM, first compound 0.0316 µM
[34] = second compound 10 µM, first compound 0.1 µM
[35] = second compound 10 µM, first compound 0.316 µM
[36] = second compound 10 µM, first compound 1 µM
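Note: spheroids exposed to agents for seven days before the viability read.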

CCN1CCN(Cc2ccc(Nc3ncc(F)c(-c4cc(F)c5nc(C)n(C(C)C)c5c4)n3)nc2)CC1 + Cc1nc(NC(=O)N2CCCC2C(N)=O)sc1-c1ccnc(C(C)(C)C(F)(F)F)c1 gave an IC50 (second compound 0.0316 µM) of over 1 µM, an IC50 (second compound 0.1 µM) of over 1 µM and an IC50 (second compound 0.316 µM) of over 1 µM. The IC50 (second compound 1 µM) was over 1 µM, the IC50 (second compound 3.16 µM) was over 1 µM and the IC50 (second compound 10 µM) was over 1 µM. For the same compound, the viability, T/C [1] was 94%, the viability, T/C [2] was 90.8% and the viability, T/C [3] was 98.5%. The viability, T/C [4] was 101%, the viability, T/C [5] was 110% and the viability, T/C [6] was 134%. For the same compound, the viability, T/C [7] was 107%, the viability, T/C [8] was 120% and the viability, T/C [9] was 96.9%. It also gave a viability, T/C [10] of 105%, a viability, T/C [11] of 114% and a viability, T/C [12] of 113%. For the same compound, the viability, T/C [13] was 113%, the viability, T/C [14] was 104% and the viability, T/C [15] was 111%. It also gave a viability, T/C [16] of 115%, a viability, T/C [17] of 131% and a viability, T/C [18] of 110%. It also gave a viability, T/C [19] of 92.5%, a viability, T/C [20] of 99% and a viability, T/C [21] of 101%. For the same compound, the viability, T/C [22] was 108%, the viability, T/C [23] was 120% and the viability, T/C [24] was 83.9%. For the same compound, the viability, T/C [25] was 96.7%, the viability, T/C [26] was 105% and the viability, T/C [27] was 106%. The viability, T/C [28] was 103%, the viability, T/C [29] was 91.9% and the viability, T/C [30] was 84.1%. The viability, T/C [31] was 91.3%, the viability, T/C [32] was 82.7% and the viability, T/C [33] was 92.3%. The viability, T/C [34] was 74.6%, the viability, T/C [35] was 68.9% and the viability, T/C [36] was 52.1%.

For Cn1cnc2c(F)c(Nc3ccc(Br)cc3Cl)c(C(=O)NOCCO)cc21 + Cc1nc(NC(=O)N2CCCC2C(N)=O)sc1-c1ccnc(C(C)(C)C(F)(F)F)c1, the IC50 (second compound 0.0316 µM) was 1.01 µM, the IC50 (second compound 0.1 µM) was 1.59 µM and the IC50 (second compound 0.316 µM) was 1.11 µM. It also gave an IC50 (second compound 1 µM) of 0.725 µM, an IC50 (second compound 3.16 µM) of 0.423 µM and an IC50 (second compound 10 µM) of 0.379 µM. The viability, T/C (second compound 0.0316 µM, first compound 0.00949 µM) was 107%, the viability, T/C (second compound 0.0316 µM, first compound 0.03 µM) was 94.8% and the viability, T/C (second compound 0.0316 µM, first compound 0.0949 µM) was 99.2%. It also gave a viability, T/C (second compound 0.0316 µM, first compound 0.3 µM) of 79.9%, a viability, T/C (second compound 0.0316 µM, first compound 0.949 µM) of 50.1% and a viability, T/C (second compound 0.0316 µM, first compound 3 µM) of 44.3%. The viability, T/C (second compound 0.1 µM, first compound 0.00949 µM) was 111%, the viability, T/C (second compound 0.1 µM, first compound 0.03 µM) was 91.3% and the viability, T/C (second compound 0.1 µM, first compound 0.0949 µM) was 98.2%. The viability, T/C (second compound 0.1 µM, first compound 0.3 µM) was 91.8%, the viability, T/C (second compound 0.1 µM, first compound 0.949 µM) was 55.3% and the viability, T/C (second compound 0.1 µM, first compound 3 µM) was 43.4%. The viability, T/C (second compound 0.316 µM, first compound 0.00949 µM) was 109%, the viability, T/C (second compound 0.316 µM, first compound 0.03 µM) was 101% and the viability, T/C (second compound 0.316 µM, first compound 0.0949 µM) was 77.4%. It also gave a viability, T/C (second compound 0.316 µM, first compound 0.3 µM) of 73.1%, a viability, T/C (second compound 0.316 µM, first compound 0.949 µM) of 50.1% and a viability, T/C (second compound 0.316 µM, first compound 3 µM) of 36.9%. It also gave a viability, T/C (second compound 1 µM, first compound 0.00949 µM) of 99.7%, a viability, T/C (second compound 1 µM, first compound 0.03 µM) of 95.6% and a viability, T/C (second compound 1 µM, first compound 0.0949 µM) of 83.4%. The viability, T/C (second compound 1 µM, first compound 0.3 µM) was 75.8%, the viability, T/C (second compound 1 µM, first compound 0.949 µM) was 39.2% and the viability, T/C (second compound 1 µM, first compound 3 µM) was 36.5%. It also gave a viability, T/C (second compound 3.16 µM, first compound 0.00949 µM) of 106%, a viability, T/C (second compound 3.16 µM, first compound 0.03 µM) of 94.5% and a viability, T/C (second compound 3.16 µM, first compound 0.0949 µM) of 79.3%. The viability, T/C (second compound 3.16 µM, first compound 0.3 µM) was 55.4%, the viability, T/C (second compound 3.16 µM, first compound 0.949 µM) was 36.4% and the viability, T/C (second compound 3.16 µM, first compound 3 µM) was 26.2%. For the same compound, the viability, T/C (second compound 10 µM, first compound 0.00949 µM) was 101%, the viability, T/C (second compound 10 µM, first compound 0.03 µM) was 86.3% and the viability, T/C (second compound 10 µM, first compound 0.0949 µM) was 94%. For the same compound, the viability, T/C (second compound 10 µM, first compound 0.3 µM) was 54.1%, the viability, T/C (second compound 10 µM, first compound 0.949 µM) was 21.9% and the viability, T/C (second compound 10 µM, first compound 3 µM) was 1.33%.

CCN1CCN(Cc2ccc(Nc3ncc(F)c(-c4cc(F)c5nc(C)n(C(C)C)c5c4)n3)nc2)CC1 + CC(Nc1ncnc2nc[nH]c12)c1cc2cccc(Cl)c2c(=O)n1-c1ccccc1 gave an IC50 (second compound 0.0316 µM) of over 1 µM, an IC50 (second compound 0.1 µM) of over 1 µM and an IC50 (second compound 0.316 µM) of over 1 µM. It also gave an IC50 (second compound 1 µM) of over 1 µM, an IC50 (second compound 3.16 µM) of over 1 µM and an IC50 (second compound 10 µM) of over 1 µM. It also gave a viability, T/C [1] of 92%, a viability, T/C [2] of 90.9% and a viability, T/C [3] of 100%. It also gave a viability, T/C [4] of 98.6%, a viability, T/C [5] of 150% and a viability, T/C [6] of 109%. For the same compound, the viability, T/C [7] was 91.5%, the viability, T/C [8] was 88.2% and the viability, T/C [9] was 104%. For the same compound, the viability, T/C [10] was 106%, the viability, T/C [11] was 137% and the viability, T/C [12] was 149%. The viability, T/C [13] was 95.2%, the viability, T/C [14] was 93.9% and the viability, T/C [15] was 98.2%. It also gave a viability, T/C [16] of 100%, a viability, T/C [17] of 147% and a viability, T/C [18] of 106%. For the same compound, the viability, T/C [19] was 98.5%, the viability, T/C [20] was 90.5% and the viability, T/C [21] was 105%. For the same compound, the viability, T/C [22] was 108%, the viability, T/C [23] was 148% and the viability, T/C [24] was 79.7%. The viability, T/C [25] was 106%, the viability, T/C [26] was 93.9% and the viability, T/C [27] was 123%. For the same compound, the viability, T/C [28] was 124%, the viability, T/C [29] was 144% and the viability, T/C [30] was 86.8%. It also gave a viability, T/C [31] of 111%, a viability, T/C [32] of 107% and a viability, T/C [33] of 118%. For the same compound, the viability, T/C [34] was 120%, the viability, T/C [35] was 114% and the viability, T/C [36] was 57.9%.
